Earlier results in patent US20240350374A1, “COMPOSITION AND METHODS OF TREATMENT USING TRANSDERMAL SUPPLEMENTATION” (Xygenyx Inc., priority 2023, published 2024).
Where a SMILES comes first, the peptide text is derived from it.

Tests used:
[1] = in vivo
[2] = tested on: wide dynamic range neurons in the ventroposterolateral nucleus of the thalamus; conditions: believed
rheumatoid arthritis = conditions: arthritic subjects
markers of inflammation = conditions: supplementation, individuals with metabolic syndrome
[3] = compared to α-tocopherol = 1.0
skin [4] = conditions: topical application, concentrations 0.5-5%
F2-isoprostane = conditions: large doses of 1600-3200 IU/day
skin [5] = conditions: topical formulations, within four weeks of treatment
skin [6] = conditions: as penetration enhancer
[7] = even when dietary intake occurs in equal portions

HGH: hormone comprising a peptide chain that is synthesized in the pituitary gland
biological half-life [1]: 10-20 minutes

CCCCCc1cc(O)c2c(c1)OC(C)(C)C1CCC(C)=CC21 (stereo not shown) [THC, Δ-9-tetrahydrocannabinol]
power in mediating pain relative to morphine [2]: ten times more powerful than morphine

C=C1CC/C=C(\C)CC[C@@H]2[C@@H]1CC2(C)C [β-caryophyllene]
increases of protein carbonyl groups and myeloperoxidase activity in liver and plasma (rheumatoid arthritis): eliminated | number of circulating and articular leukocytes (rheumatoid arthritis): reduced | swelling of joints and lymph nodes (rheumatoid arthritis): reduced

Cc1cc(O)cc2c1O[C@](C)(CCC[C@H](C)CCC[C@H](C)CCCC(C)C)CC2 [δ-tocopherol]
markers of inflammation in the blood (markers of inflammation): reduced | relative biological activity [3]: 0.03

Cc1cc(O)c(C)c2c1O[C@](C)(CCC[C@H](C)CCC[C@H](C)CCCC(C)C)CC2 [β-tocopherol]
relative biological activity [3]: 0.5

C=CCCCCCCCCC(=O)N[C@@H](Cc1ccccc1)C(=O)O [UP, Undecylenoyl phenylalanine]
time to skin lightening effects (skin [4]): ≥ 7 days

Cc1c(C)c2c(c(C)c1O)CC[C@@](C)(CCC[C@H](C)CCC[C@H](C)CCCC(C)C)O2 [α-tocopherol]
reduction of risk of coronary disease (dietary supplementation, doses up to 400 IU/day): up to 34% | reduction of risk of developing neurodegenerative diseases (Alzheimer's Syndrome or dementia) (dietary supplementation, doses up to 400 IU/day, controlled trials): ≤ 24% | reduction in the development of age-related cataracts (in combination with 10-20 mg β-carotene and 400-500 mg vitamin C, doses around 400-500 IU): 23% | relative biological activity [3]: 1.0 | blood plasma concentration of F2-isoprostane (F2-isoprostane): significantly lower

CC[C@H](C)[C@H](NC(=O)[C@H](CC(=O)O)NC(=O)[C@@H](N)CCCCN)C(=O)N[C@@H](CCCNC(N)=O)C(N)=O [tripeptide-10 citrulline, Tripeptide-10 citrulline] (HELM PEPTIDE1{K.D.I.[Cit].[am]}$$$$V2.0)
improvement of suppleness (skin [5]): ≤ 54%

CC12CCC(CC1)C(C)(C)O2 [eucalyptol, 1,8-epoxy-p-menthane]
factor of increase of transdermal drug uptake / penetration (skin [6]): more than 10

CC(C)[C@@H]1CC[C@@H](C)C[C@H]1O [Menthol]
factor of increase of transdermal drug uptake / penetration (skin [6]): ≥ 10

Cc1c(O)cc2c(c1C)O[C@](C)(CCC[C@H](C)CCC[C@H](C)CCCC(C)C)CC2 [γ-tocopherol]
concentration in vivo relative to α-tocopherol [7]: roughly 10% | relative biological activity [3]: 0.1
